Experimental data from US10849872B2, “Methods and compositions for treating obesity, preventing weight gain, promoting weight loss, promoting slimming, or treating or preventing the development of diabetes” (NAN Global, LLC, priority 2014, dated 2020).

Experiments:
[1] = Shelf life of synthesised tyrphostin 9; format: physicochemical; conditions: at 25-35° C.
Protocol: This procedure yields about 800 g (about 95% yield) of a light-yellow microcrystalline solid that melts at 141-142° C. (uncorrected), presents UV absorption maxima at 247 nm and 365 nm and has an Rf value of 0.65 (using benzene as eluant and Merck's TLC silica gel 60 F254 plastic-backed sheets), with only one spot being observed. The mixed melting point of this compound and authentic tyrphostin 9 (acquired from Cayman Chemical) was also 141-142° C. (uncorrected), and its spectroscopic and chromatographic properties were identical to those of the authentic product. This compound is stable, with a shelf life of over 1 year at 25-35° C.; if necessary it may be recrystallized from ethanol.

[2] = system: human cell lines (brain, liver, lung, intestine, kidney, and muscle); assay: Preclinical toxicity study in human cell lines; format: cell-based; conditions: all examined human cell lines: brain
Protocol: (§1) A preclinical toxicity study of tyrphostin 9 was conducted in human cell lines (brain, liver, lung, intestine, kidney, and muscle), followed by feeding experiments of C57BL/6 mice. In the in vivo mice experiments, the mice were orally administered tyrphostin 9 during 15 days, at a dose of 0.175 mg/kg/day.

[3] = system: differentiation of keratocytes into adipocytes; assay: Inhibition of differentiation into adipocytes; format: cell-based
[4] = system: C57BL/6 mice; assay: Feeding experiments of C57BL/6 mice, oral tyrphostin 9; format: in vivo
Protocol: as §1

[5] = system: overweight, obese, and/or diabetic subjects; assay: Preliminary trial in overweight, obese, and/or diabetic subjects; format: in vivo, human
Protocol: A preliminary trial involving 75 overweight, obese, and/or diabetic subjects of both sexes was carried out over a twenty-month period. Exclusion criteria were: (1) recent significant weight gain, (2) a compromised thermoregulatory system, (3) pregnancy, (4) renal or hepatic failure, (5) use of illegal drugs or drugs that impair the body's heat dissipation mechanisms, (6) serious dysrhythmias, (7) unstable angina pectoris, (8) congestive heart failure, (9) severe cerebrovascular disease, (10) use of a pacemaker, (11) severe pulmonary impairment, (12) anemia, (13) Parkinson's disease, (14) body weight of less than 35 kilograms, (15) extensive psoriasis, (16) repeated episodes of hypoglycemia, (17) cystic fibrosis, (18) spinal cord injury, (19) a hereditary muscle disease, (20) chronic or recurrent venous thrombosis, (21) untreated hyperthyroidism, (22) exercise- or heat-induced angioedema, (23) seizure disorders, (24) schizophrenia, and (25) hypocalcemia.
Medications that reduce sweating, decrease vasodilatation, decrease cardiac output, or induce hypothalamic depression were not taken prior to, during, and immediately after treatment.
Obese participants, aged 16-72, were administered orally one or more hard gelatin capsules per day, each containing 20 mg of active ingredient (i.e., tyrphostin 9) and microcrystalline cellulose. They were instructed not to modify their food intake or to start a course of exercise. […] Afterwards, different dosing schedules were imposed, with refractory individuals being administered two or three capsules per day (i.e., 40 or 60 mg tyrphostin 9 per day), whereas only one capsule per day was administered to all others, who consequently received 20 mg tyrphostin 9 per day throughout the trial.
Participants were also instructed to prevent dehydration by drinking plenty of water and to replenish electrolytes by taking both potassium and magnesium supplements or V-8 Juice or Gatorade. Those receiving two capsules per day were asked to take them at the same time during weeks two and three and then to switch to one in the morning and one at night during weeks four and five. Participants receiving 40 mg tyrphostin 9 per day reported that sweating/body temperature peaked either during night time or day time, depending on whether the two capsules were taken in the morning or at night. […] Obese participants lost on average 4 kg per month, with cumulative weight losses of up to 48 kg.
Diabetic subjects (mostly obese and all presenting Type 2 diabetes mellitus) were similarly treated.

[6] = system: obese subjects; assay: Synergistic effects of tyrphostin 9 and L-carnitine tartrate in obese subjects; format: in vivo, human; conditions: Group A: two capsules per day of 20 mg tyrphostin 9, oral
Protocol: Obese subjects with similar BMI and whose weight had remained essentially constant during the past 30 days were recruited, instructed not to modify their eating habits, food intake, or lifestyle, and randomly and blindly assigned to either treatment Group A, Group B, or Group C.
Subjects in Group A were administered (orally) two capsules per day, each containing 20 mg Tyrphostin 9 plus inert excipient; subjects in Group B were administered (orally) four capsules per day, each containing 5 mg tyrphostin 9 and about 700 mg L-carnitine tartrate; subjects in Group C were administered—in the morning—two capsules, each containing 20 mg Tyrphostin 9 plus inert excipient, and—at night time—four capsules, each containing about 700 mg of L-carnitine tartrate.
After a two week washout period, a new experiment was initiated. Subjects in Group A were orally administered two capsules per day, each containing 20 mg Tyrphostin 9 plus inert excipient, subjects in Group B were given eight capsules per day, each containing 5 mg Tyrphostin 9 plus about 700 mg L-carnitine tartrate, and subjects in Group C were administered—in the morning—two capsules, each containing 20 mg tyrphostin 9 plus inert excipient and, at night, eight capsules each containing about 700 mg L-carnitine tartrate.

[7] = system: human neutrophils; conditions: well known properties; cited from earlier work
[8] = well known properties; cited from earlier work

CC(C)(C)c1cc(C=C(C#N)C#N)cc(C(C)(C)C)c1O [tyrphostin 9]
shelf life [1]: over 1 year | toxicity in human cell lines [2]: low | differentiation of keratocytes into adipocytes [3]: inhibits | toxicity or inflammation in treated mice ([4]; 0.175 mg/kg/day during 15 days, histochemical and behavioral criteria): no evidence of toxicity or inflammation | adipocyte dimensions ([4]; concomitant with visceral lipid transport): reduction | effect on chow intake ([4]; lean mice): no such effect | apoptosis induction, obese versus lean mice ([4]; mouse, in vivo): more evident in obese mice than in lean mice | glycogen storage in hepatocytes ([4]; mouse, in vivo): promotes | visceral lipid transport from adipocytes ([4]; mouse, in vivo): promotes | chow intake curtailed ([4]; obese mice grown on a high-fat diet, oral 0.175 mg/kg/day, 15 days): about 50% | adipocyte apoptosis mediated by caspase-3 ([4]; to a greater extent than taurosporine): promotes | sweating/heat sensation, two capsules simultaneously versus one in the morning and one at night ([5]; 40 mg per day, weeks two and three simultaneous, weeks four and five split): more intense during weeks two and three | slimming (waist circumference and other body measurements) ([5]; all participants, end of treatment): significant reductions in waist circumference | blood glucose level ([5]; diabetic subjects (Type 2 diabetes mellitus, mostly obese)): significant decrease | sweating / body temperature reported by participants ([5]; end of first week, one 20 mg capsule per day, oral): most of them reported sweating copiously and/or noticing a distinct increase in body temperature | sweating / heat sensation reported by participants ([5]; end of trial, 20, 40 or 60 mg per day, all participants): sweating copiously and/or experienced an increased heat sensation | adverse effects ([5]; human, in vivo): no adverse effects were reported | muscle mass loss ([5]; human, in vivo): negligible | rebound effect ([5]; human, in vivo): no “rebound effect” was observed | tolerability of treatment ([5]; human, in vivo): very well tolerated | blood lipid values ([5]; obese and diabetic subjects): lower blood lipid values | cumulative weight losses ([5]; obese participants): up to 48 kg | average weight loss ([5]; obese participants, 20-60 mg per day oral): 4 kg per month | weight loss after 15 days [6]: about 2 kg | TNF-induced respiratory burst of human neutrophils [7]: inhibits | toxicity (in vitro and in vivo) [8]: very low toxicity
